Where two headings read alike, the source gives them in different places.
Test system: test plant species in Direct Seeded Rice
Assay: Postemergence herbicidal activity in direct seeded rice (Table 13)
Assay type: in vivo
Details: for GR50 BRAPP / GR80 BRAPP / GR50 CYPSS / GR80 CYPSS / GR50 ECHSS / GR80 ECHSS / GR50 LEFSS / GR80 LEFSS / GR20 ORYSS / GR50 SCPJU / GR80 SCPJU / GR50 SEBEX / GR80 SEBEX: probit analysis; for GR20 ORYSS: ORYSS: Oryza sativa (crop); for pest or weed control at 35 g/ha / pest or weed control at 70 g/ha: post-emergence, 504 h
From the text: Seeds or nutlets of the desired test plant species were planted in a soil matrix prepared by mixing a loam soil (43 percent silt, 19 percent clay, and 38 percent sand, with a pH of about 8.1 and an organic matter content of about 1.5 percent) and river sand in an 80 to 20 ratio. The soil matrix was contained in plastic pots with a surface area of 139.7 cm^2. When required to ensure good germination and healthy plants, a fungicide treatment and/or other chemical or physical treatment was applied. The plants were grown for 10-17 d in a greenhouse with an approximate 14-h photoperiod which was maintained at about 29° C. during the day and 26° C. during the night. Nutrients and water were added on a regular basis and supplemental lighting was provided with overhead metal halide 1000-Watt lamps as necessary. The plants were employed for testing when they reached the second or third true leaf stage. A weighed amount, determined by the highest rate to be tested, of each test compound was placed in 25 mL glass vials and dissolved in a volume of 97:3 v/v acetone-DMSO to obtain 12× stock solutions. […] The concentrated stock solutions were added to the spray solutions so that the final acetone and DMSO concentrations were 16.2% and 0.5%, respectively. Spray solutions were diluted to the appropriate final concentrations with the addition of 10 mL of an aqueous mixture of 1.5% (v/v) Agri-dex crop oil concentrate. […] Compound requirements are based upon a 12 mL application volume at a rate of 187 L/ha. Formulated compounds were applied to the plant material with an overhead Mandel track sprayer equipped with […] nozzles calibrated to deliver 187 L/ha over an application area of 0.503 square meters (m^2) at a spray height of 18 inches (43 cm) above average plant canopy height. Control plants were sprayed in the same manner with the solvent blank. The treated plants and control plants were placed in a greenhouse as described above and watered by sub-irrigation to prevent wash-off of the test compounds. After 20-22 days, the condition of the test plants, compared with that of the untreated plants, was determined visually and scored on a scale of 0 to 100 percent where 0 corresponds to no injury and 100 corresponds to complete kill. By applying the well-accepted probit analysis as described by J. Berkson in Journal of the American Statistical Society, 48, 565 (1953) and by D. Finney in “Probit Analysis” Cambridge University Press (1952), the above data can be used to calculate GR20, GR50, GR80 and GR90 values, which are defined as growth reduction factors that correspond to the effective dose of herbicide required to kill or control 20 percent, 50 percent, 80 percent or 90 percent, respectively, of a target plant.

[1] = BRAPP: broadleaf signalgrass, Brachiaria platyphylla
[2] = CYPSS: sedge (Cyperus difformis, esculentus, iria)
[3] = ECHSS: barnyardgrass (Echinochloa crus-galli), junglerice (Echinochloa colonum)
[4] = LEFSS: sprangletop (Leptochloa chinensis, Leptochloa dubia)
[5] = SCPJU: Japanese bulrush, Scirpus juncoides
[6] = SEBEX: hemp sesbania, Sesbania exaltata
[7] = BRAPP: broadleaf signalgrass, Brachiaria platyphylla, 35 g ai/ha, read-out: Visual Growth Reduction (%) 21 Days After Application BRAPP
[8] = BRAPP: broadleaf signalgrass, Brachiaria platyphylla, 70 g ai/ha, read-out: Visual Growth Reduction (%) 21 Days After Application BRAPP
[9] = CYPSS: sedge (Cyperus difformis, esculentus, iria), 35 g ai/ha, read-out: Visual Growth Reduction (%) 21 Days After Application CYPSS
[10] = CYPSS: sedge (Cyperus difformis, esculentus, iria), 70 g ai/ha, read-out: Visual Growth Reduction (%) 21 Days After Application CYPSS
[11] = ECHSS: barnyardgrass (Echinochloa crus-galli), junglerice (Echinochloa colonum), 35 g ai/ha, read-out: Visual Growth Reduction (%) 21 Days After Application ECHSS
[12] = ECHSS: barnyardgrass (Echinochloa crus-galli), junglerice (Echinochloa colonum), 70 g ai/ha, read-out: Visual Growth Reduction (%) 21 Days After Application ECHSS
[13] = LEFSS: sprangletop (Leptochloa chinensis, Leptochloa dubia), 35 g ai/ha, read-out: Visual Growth Reduction (%) 21 Days After Application LEFSS
[14] = LEFSS: sprangletop (Leptochloa chinensis, Leptochloa dubia), 70 g ai/ha, read-out: Visual Growth Reduction (%) 21 Days After Application LEFSS
[15] = ORYSS: Oryza sativa, 35 g ai/ha, read-out: Visual Growth Reduction (%) 21 Days After Application ORYSS
[16] = ORYSS: Oryza sativa, 70 g ai/ha, read-out: Visual Growth Reduction (%) 21 Days After Application ORYSS
[17] = SCPJU: Japanese bulrush, Scirpus juncoides, 35 g ai/ha, read-out: Visual Growth Reduction (%) 21 Days After Application SCPJU
[18] = SCPJU: Japanese bulrush, Scirpus juncoides, 70 g ai/ha, read-out: Visual Growth Reduction (%) 21 Days After Application SCPJU
[19] = SEBEX: hemp sesbania, Sesbania exaltata, 35 g ai/ha, read-out: Visual Growth Reduction (%) 21 Days After Application SEBEX
[20] = SEBEX: hemp sesbania, Sesbania exaltata, 70 g ai/ha, read-out: Visual Growth Reduction (%) 21 Days After Application SEBEX

Structure (SMILES)	GR50 BRAPP [1] [g ai/ha]	GR80 BRAPP [1] [g ai/ha]	GR50 CYPSS [2] [g ai/ha]	GR80 CYPSS [2] [g ai/ha]	GR50 ECHSS [3] [g ai/ha]	GR80 ECHSS [3] [g ai/ha]	GR50 LEFSS [4] [g ai/ha]	GR80 LEFSS [4] [g ai/ha]	GR20 ORYSS [g ai/ha]	GR50 SCPJU [5] [g ai/ha]	GR80 SCPJU [5] [g ai/ha]	GR50 SEBEX [6] [g ai/ha]	GR80 SEBEX [6] [g ai/ha]	pest or weed control at 35 g/ha [7] [%]	pest or weed control at 70 g/ha [8] [%]	pest or weed control at 35 g/ha [9] [%]	pest or weed control at 70 g/ha [10] [%]	pest or weed control at 35 g/ha [11] [%]	pest or weed control at 70 g/ha [12] [%]	pest or weed control at 35 g/ha [13] [%]	further results
COC(=O)c1nc(-c2ccc(Br)cc2)c(Cl)c(N)c1Cl [Compound 47]	>70	>70	1	3	>70	>70	>70	>70	>70	1	1	1	1	30 to 44	30 to 44	95 to 100	95 to 100	30 to 44	0 to 29	75 to 84	pest or weed control at 70 g/ha [14]: 0 to 29%; pest or weed control at 35 g/ha [15]: 0 to 29%; pest or weed control at 70 g/ha [16]: 0 to 29%; pest or weed control at 35 g/ha [17]: 95 to 100%; pest or weed control at 70 g/ha [18]: 95 to 100%; pest or weed control at 35 g/ha [19]: 95 to 100%; pest or weed control at 70 g/ha [20]: 95 to 100%
COC(=O)c1nc(-c2ccc(C(F)(F)F)c(F)c2)c(Cl)c(N)c1Cl [Compound 58]	>70	>70	4	8	>70	>70	>70	>70	>70	5	8	2	4								Visual Growth Reduction (%) 21 Days After Application BRAPP (BRAPP: broadleaf signalgrass, Brachiaria platyphylla, 35 g ai/ha): G (0-29); Visual Growth Reduction (%) 21 Days After Application BRAPP (BRAPP: broadleaf signalgrass, Brachiaria platyphylla, 70 g ai/ha): G (0-29); Visual Growth Reduction (%) 21 Days After Application CYPSS (CYPSS: sedge (Cyperus difformis, esculentus, iria), 35 g ai/ha): A (95-100); Visual Growth Reduction (%) 21 Days After Application CYPSS (CYPSS: sedge (Cyperus difformis, esculentus, iria), 70 g ai/ha): A (95-100); Visual Growth Reduction (%) 21 Days After Application ECHSS (ECHSS: barnyardgrass (Echinochloa crus-galli), junglerice (Echinochloa colonum), 35 g ai/ha): G (0-29); Visual Growth Reduction (%) 21 Days After Application ECHSS (ECHSS: barnyardgrass (Echinochloa crus-galli), junglerice (Echinochloa colonum), 70 g ai/ha): G (0-29); Visual Growth Reduction (%) 21 Days After Application LEFSS (LEFSS: sprangletop (Leptochloa chinensis, Leptochloa dubia), 35 g ai/ha): G (0-29); Visual Growth Reduction (%) 21 Days After Application LEFSS (LEFSS: sprangletop (Leptochloa chinensis, Leptochloa dubia), 70 g ai/ha): E (45-59); Visual Growth Reduction (%) 21 Days After Application ORYSS (ORYSS: Oryza sativa, 35 g ai/ha): G (0-29); Visual Growth Reduction (%) 21 Days After Application ORYSS (ORYSS: Oryza sativa, 70 g ai/ha): G (0-29); Visual Growth Reduction (%) 21 Days After Application SCPJU (SCPJU: Japanese bulrush, Scirpus juncoides, 35 g ai/ha): A (95-100); Visual Growth Reduction (%) 21 Days After Application SCPJU (SCPJU: Japanese bulrush, Scirpus juncoides, 70 g ai/ha): A (95-100); Visual Growth Reduction (%) 21 Days After Application SEBEX (SEBEX: hemp sesbania, Sesbania exaltata, 35 g ai/ha): A (95-100); Visual Growth Reduction (%) 21 Days After Application SEBEX (SEBEX: hemp sesbania, Sesbania exaltata, 70 g ai/ha): A (95-100)
COC(=O)c1nc(-c2ccc(I)cc2)c(Cl)c(N)c1Cl [Compound 96]	19	58	3	6	29	84	27	58	130	1	1	1	1	60 to 74	85 to 94	95 to 100	95 to 100	45 to 59	85 to 94	85 to 94	pest or weed control at 70 g/ha [14]: 75 to 84%; pest or weed control at 35 g/ha [15]: 0 to 29%; pest or weed control at 70 g/ha [16]: 0 to 29%; pest or weed control at 35 g/ha [17]: 95 to 100%; pest or weed control at 70 g/ha [18]: 95 to 100%; pest or weed control at 35 g/ha [19]: 95 to 100%; pest or weed control at 70 g/ha [20]: 95 to 100%
Nc1c(Cl)c(C(=O)O)nc(-c2ccc(I)cc2)c1Cl [Compound 173]	8	26	2	4	12	33	24	47	16	1	1	1	1	75 to 84	95 to 100	95 to 100	95 to 100	75 to 84	95 to 100	45 to 59	pest or weed control at 70 g/ha [14]: 95 to 100%; pest or weed control at 35 g/ha [15]: 45 to 59%; pest or weed control at 70 g/ha [16]: 60 to 74%; pest or weed control at 35 g/ha [17]: 95 to 100%; pest or weed control at 70 g/ha [18]: 95 to 100%; pest or weed control at 35 g/ha [19]: 95 to 100%; pest or weed control at 70 g/ha [20]: 95 to 100%
COC(=O)c1nc(-c2ccc(I)cc2F)cc(N)c1Cl [Compound 159]	3	8	2	5	2	4	12	19	12	1	1	1	1	95 to 100	95 to 100	95 to 100	95 to 100	95 to 100	95 to 100	95 to 100	pest or weed control at 70 g/ha [14]: 95 to 100%; pest or weed control at 35 g/ha [15]: 45 to 59%; pest or weed control at 70 g/ha [16]: 60 to 74%; pest or weed control at 35 g/ha [17]: 95 to 100%; pest or weed control at 70 g/ha [18]: 95 to 100%; pest or weed control at 35 g/ha [19]: 95 to 100%; pest or weed control at 70 g/ha [20]: 95 to 100%

Reference: US9113629B2, “4-amino-6-(4-substituted-phenyl)-picolinates and 6-amino-2-(4-substituted-phenyl)-pyrimidine-4-carboxylates and their use as herbicides” (DOW AGROSCIENCES LLC, priority 2013, dated 2015)
